Laboratory results taken from US11529318B2, “Devices and methods for local delivery of tacrolimus” (UNIVERSITY OF PITTSBURGH—OF THE COMMONWEALTH SYSTEM OF …, priority 2017, dated 2022).

Key:
[1] = Tacrolimus concentration in blood, optic nerve ischemia model (Example 1); type: in vivo, Sprague-Dawley rats; settings: Sprague-Dawley, rat, whole blood, ip, systemic administration (i.p. 2.2 mg/kg/day)
Protocol: Optic nerve ischemia and PEUU-Tac matrix application. Animals were anesthetized by intraperitoneal injection of 45:10 mg/kg ketamine/xylazine cocktail. Once anaesthetized, the optic nerve was exposed by making a small incision and then creating a nearly bloodless plane through the conjunctiva by blunt dissection with #5 forceps. The surrounding muscle and connective tissue around the optic nerve were then gently separated until the optic nerve was exposed. Using a Yasagril aneurysm clip, the right optic nerve was clamped ˜2 mm behind the globe for 10 seconds (Sarikcioglu, Demir et al. 2007). After removing the clip, ophthalmic artery integrity was confirmed by visualization. For some animals, the optic nerve sheath was fenestrated at the injury site by making an 1-2 mm incision. For animals receiving PEUU-Tac, a 1×5 mm section cut from a 10 mg PEUU-Tac matrix was sutured around the injury site and then secured by suturing to the outer sheath. After each optic nerve procedure, the conjunctiva was sutured and antibiotic ointment (Gentamicin, Bausch & Lomb, Tampa, Fla.) was applied to the eye. […]
Quantification of tacrolimus in blood by HPLC-tandem mass spectrometry. […] Monitored parent to product mass transitions for tacrolimus and ascomycin were 821.63→768.33 and 809→756 m/z, respectively.

[2] = test system: glial fibrillary acidic protein (GFAP) expression; assay: GFAP immunohistochemistry of optic nerve after optic nerve crush; type: in vivo, Sprague-Dawley rats; settings: 14 days after optic nerve crush, systemic tacrolimus treatment, compared to uncrushed controls
Protocol: Optic nerve ischemia and PEUU-Tac matrix application. Animals were anesthetized by intraperitoneal injection of 45:10 mg/kg ketamine/xylazine cocktail. Once anaesthetized, the optic nerve was exposed by making a small incision and then creating a nearly bloodless plane through the conjunctiva by blunt dissection with #5 forceps. The surrounding muscle and connective tissue around the optic nerve were then gently separated until the optic nerve was exposed. Using a Yasagril aneurysm clip, the right optic nerve was clamped ˜2 mm behind the globe for 10 seconds (Sarikcioglu, Demir et al. 2007). After removing the clip, ophthalmic artery integrity was confirmed by visualization. For some animals, the optic nerve sheath was fenestrated at the injury site by making an 1-2 mm incision. For animals receiving PEUU-Tac, a 1×5 mm section cut from a 10 mg PEUU-Tac matrix was sutured around the injury site and then secured by suturing to the outer sheath. After each optic nerve procedure, the conjunctiva was sutured and antibiotic ointment (Gentamicin, Bausch & Lomb, Tampa, Fla.) was applied to the eye. In total, twenty-eight animals received acute optic nerve ischemia to the right optic nerve with or without a PEUU-Tac wrap.
Immunohistochemistry. […]

[3] = Tacrolimus concentration in whole blood (Example 3); type: in vivo, Lewis rats; settings: Lewis, rat, intraperitoneal, 1 mg/kg, read-out: trough tacrolimus blood levels
Protocol: Quantification of Tacrolimus by LC-Tandem Mass Spectrometry (LC-MS/MS). Fifty microliters of blood containing an unknown concentration of Tacrolimus was added to a conical centrifugation tube, followed by 200 μL of zinc sulfate heptahydrate (ZnSO4.7H2O) to precipitate plasma proteins. Five hundred microliters of an acetonitrile based solution containing a deuterated internal standard (ascomycin) at a concentration of 15 ng/ml was then added, and the mixture was vortexed at 3000 rpm for 2 minutes and centrifugated at 13,000 rpm for 3 minutes and the supernatants collected in LCMS vials for analysis.
Analysis was performed using a fully validated, reverse phased method for the detection of TAC in blood on a Waters micromass Quattro micro API mass spectrometer that is operated in positive electrospray ionization mode, utilizing multiple reaction monitoring, with an injection volume of 20 μL. The Waters 2795 Alliance Separations Module was equipped with a nova-pack® C18 column, 2.1×10 mm cartridge (Waters #186003523) heated to 55° C. Analytes were effectively separated using a gradient elution consisting of an aqueous mobile phase (95% H2O/5% MeOH) and an organic mobile phase (100% MeOH), at a flow rate of 0.6 mL per minute. Mobile phases also contained 0.1% formic acid (CH2O2) and 2 mM ammonium acetate.

concentration at 24 h ([1]; 24 hour): 7.05 ± 1.09 ng/mL | concentration at 14 days ([1]; 14 days): 27.7 ± 3.53 ng/mL | concentration at 24 h ([3]; 24 hours post systemic injection): 18.8 ± 14.8 ng/mL | concentration at 14 days ([3]; 14 days, systemically treated animals): 14 ± 10.6 ng/mL
SMILES: C=CC[C@@H]1/C=C(\C)C[C@H](C)C[C@H](OC)[C@H]2O[C@@](O)(C(=O)C(=O)N3CCCC[C@H]3C(=O)O[C@H](/C(C)=C/[C@@H]3CC[C@@H](O)[C@H](OC)C3)[C@H](C)[C@@H](O)CC1=O)[C@H](C)C[C@@H]2OC [tacrolimus]
GFAP expression in optic nerve [2]: did not cause significant GFAP expression
